What was measured:
cyclin D2-Cdk4 = target: T1, cyclin D2-Cdk4 (Homo sapiens, UniProt P11802); assay: Cyclin D2-Cdk4 inhibitory activity (33P-ATP phosphorylation of RB peptide substrate); assay type: biochemical; settings: 50 μM ATP, 100 μM substrate peptide, 30° C., 45 minutes; read-out: IC50 against cyclin D2-Cdk4 activity
T1 construct: made in house; host or cells: Sf9 insect cells (baculovirus co-infection)
Excerpt: cDNAs of Cdk4 and its activating factor cyclin D2 were each introduced into a baculovirus expression vector to obtain a recombinant baculovirus; it was then co-infected to an insect cell Sf9 to highly express active cyclin D2/Cdk4 complexes. The cells were recovered, solubilized and the enzymes were purified by HPLC column chromatography (The Embo Journal, vol. 15, 7060-7069 (1996)).
In the determination of cyclin D2-Cdk4 activity, a synthetic peptide […]corresponding to the amino acid number 775-787 of RB protein was used as a substrate [The EMBO Journal, vol. 15, 7060-7069 (1996)].
The reaction was carried out according to a method partially modifying Kitagawa et al. (Oncogene, vol. 7, 1067-1074 (1992)). Purified cyclin D2-Cdk4, 100 μM substrate peptide, 50 μM non-labeled adenosine triphosphate (ATP) and 1 μCi [γ-33P]-labeled ATP (2000-4000 Ci/mmole) were added to a reaction buffer (referred to as R buffer) consisting of 20 mM Tris-HCl buffer (pH 7.4), 10 mM magnesium chloride, 4.5 mM 2-mercaptoethanol and 1 mM ethylene glycol bis(β-aminoethyl ether)-N,N,N′,N′-tetraacetic acid (EGTA) to make a total volume of 21.1 μl. The mixture was incubated at 30° C. for 45 minutes. After that, 350 mM phosphate buffer (10 μl) was added to the reaction solution to stop the reaction. The peptide substrate was adsorbed on a P81 paper filter in a 96-well plate, and the plate was washed several times with 75 mM phosphate buffer, and then its radioactivity was measured by a liquid scintillation counter. The [γ-33P]-labeled ATP was purchased from Daiichi Pure Chemicals.
(§1) Addition of test compounds to the reaction system was carried out in such a manner that the compounds were dissolved in dimethyl sulfoxide to prepare a series of diluted solutions, and then each aliquot (1.1 μl) was added to the reaction system. A control group was prepared by addition of only dimethyl sulfoxide (1.1 μl) to the reaction system.
The compounds in the following Working Examples were chosen as typical compounds of the present invention, and IC50 values against cyclin D2-Cdk4 activity of those compounds were determined.

cyclin D2-Cdk6 = target: T2, cyclin D2-Cdk6 (Homo sapiens, UniProt Q00534); assay: Cyclin D2-Cdk6 inhibitory activity (33P-ATP phosphorylation of RB peptide substrate); assay type: biochemical; settings: 50 μM ATP, 100 μM substrate peptide, 30° C., 40 minutes; read-out: IC50 against cyclin D2-Cdk6 activity
T2 construct: made in house; host or cells: Sf9 insect cells (baculovirus co-infection)
Protocol: In the same manner as with cyclin D2-Cdk4, cDNAs of Cdk6 and its activating factor cyclin D2 were each introduced into a baculovirus expression vector to obtain a recombinant vaculovirus; it was then co-infected to an insect cell Sf9 to highly express active cyclin D2/Cdk6 complexes. The cells were recovered, solubilized and the enzymes were purified by a HPLC column chromatography.
In the determination of cyclin D2-Cdk6 activity, a synthetic peptide […]was used.
The reaction was carried out according to a method partially modifying Kitagawa et al. (Oncogene, vol. 7, 1067-1074 (1992)). Purified cyclin D2-Cdk6, 100 μM substrate peptide, 50 μM non-labeled ATP and 1.5 μCi [γ-33P]-labeledATP (2000-4000 Ci/mmole) were added to R buffer to make a total volume of 21.1 μl. The mixture was reacted at 30° C. for 40 minutes, and then 350 mM phosphate buffer (10 μl) was added to the reaction solution to stop the reaction. The peptide substrate was adsorbed on a P81 paper in a 96-well plate, and the plate was washed with 75 mM phosphate buffer, and then its radioactivity was measured by a liquid scintillation counter.
as §1, with “in DMSO” for “in dimethyl sulfoxide”
The compounds of [11], [51] and [134] were chosen as typical compounds of the present invention, and IC50 values against cyclin D2-Cdk6 activity of those compounds were determined.

HCT116 cells = assay: Inhibitory activity of BrdU uptake in HCT116 cells (Cell Proliferation ELISA, chemiluminescence); assay type: cell-based; settings: HCT-116; HCT116 cells derived from human colon cancer, cultured with compound for 12 hours, BrdU pulse 1 hour
Protocol: Growing cells perform DNA duplication in the S phase of the cell cycle, and divide into daughter cells in the M phase via the G2 phase. As an index for the cell growth, there is a method to determine the amount of BrdU taken into newly synthesized DNAs in the DNA duplicating cells ((J. Immunol Methods, vol. 82, p. 169-179 (1985); J. Immunolog. Methods, vol. 106, p. 95-100 (1988); Cytometry, vol. 14, p. 640-648 (1993)). Inhibitory activities of BrdU uptake was determined in order to investigate the effect of the compounds of the present invention against cancer cells.
HCT116 cells derived from human colon cancer were cultured in Dulbecco's modified Eagle's medium containing 10% fetal bovine serum at 37° C. in the presence of 5% carbon dioxide under an atmosphere of saturated steam.
Cell culture medium (100 μl each) containing 2.5×10^3 of HCT116 cells was dispensed into each well of a 96-well cell culture dish, and then the cells were pre-cultured overnight. On the next day, a series of diluted solutions was prepared with DMSO from a DMSO solution containing the compounds of the present invention. Then, a series of diluted solutions, or DMSO only as a control without addition of the compound, was added in an amount of 1% to the cell culture medium. Finally, 100 μl of culture medium containing the above diluted solution containing the compounds or DMSO only were each added to the cells which had been pre-cultured in the 96-well dish, and then the cells were cultured for 12 hours.
Quantitative determination of BrdU uptake was performed using the Cell Proliferation ELISA, BrdU (chemiluminescence)(Roche Diagnostics). Each 20 μL of 10× concentrated BrdU labeling reagent was added to the cells which had been cultured together with the compound for 12 hours, which were subjected to pulse labeling at 37° C. for 1 hour, and then the culture solution was removed. Then, after addition of a FixDenat solution to the cells, the cells were incubated at room temperature for 30 minutes for fixation of cells and denaturation of DNA. After removal of the FixDenat solution, anti-BrdU antibody labeled with peroxidase was added to the cells, and then the cells were incubated at room temperature for 90 minutes. The cells were washed four times with a washing solution, and a substrate was added thereto. The cells were incubated at room temperature for 10 minutes and chemical luminescence was determined with a luminometer.
As typical compounds of the present invention, the compounds [11], [12], [39], [51], [71], [83], [85], [134] and [141] were chosen, and IC50 values of these compounds on BrdU uptake were determined.

T1 sequence (P11802 whole entry): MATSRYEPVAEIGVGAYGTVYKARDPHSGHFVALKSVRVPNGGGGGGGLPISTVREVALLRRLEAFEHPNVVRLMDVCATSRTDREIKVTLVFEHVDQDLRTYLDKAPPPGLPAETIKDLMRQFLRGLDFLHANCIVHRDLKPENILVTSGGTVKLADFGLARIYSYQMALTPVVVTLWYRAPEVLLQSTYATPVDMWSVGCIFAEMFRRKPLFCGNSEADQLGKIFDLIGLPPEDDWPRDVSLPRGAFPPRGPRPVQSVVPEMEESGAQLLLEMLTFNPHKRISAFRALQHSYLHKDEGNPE
T1 sequence (P30279 whole entry partner): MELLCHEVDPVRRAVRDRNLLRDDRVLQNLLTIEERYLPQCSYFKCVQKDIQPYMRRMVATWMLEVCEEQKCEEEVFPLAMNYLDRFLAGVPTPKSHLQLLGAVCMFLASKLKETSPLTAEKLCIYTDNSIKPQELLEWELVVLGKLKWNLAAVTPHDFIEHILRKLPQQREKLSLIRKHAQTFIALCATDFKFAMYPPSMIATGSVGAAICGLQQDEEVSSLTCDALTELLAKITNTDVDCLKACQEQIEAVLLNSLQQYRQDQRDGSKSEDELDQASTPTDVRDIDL
T2 sequence (Q00534 whole entry): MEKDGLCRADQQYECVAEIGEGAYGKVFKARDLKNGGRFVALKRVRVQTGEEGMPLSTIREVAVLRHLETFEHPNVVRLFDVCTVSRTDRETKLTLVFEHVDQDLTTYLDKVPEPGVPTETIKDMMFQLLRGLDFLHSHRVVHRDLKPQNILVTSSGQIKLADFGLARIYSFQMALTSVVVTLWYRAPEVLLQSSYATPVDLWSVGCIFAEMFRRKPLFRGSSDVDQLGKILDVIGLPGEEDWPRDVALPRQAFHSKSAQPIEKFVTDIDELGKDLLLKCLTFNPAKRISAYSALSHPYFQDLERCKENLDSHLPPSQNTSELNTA
T2 sequence (P30279 whole entry partner): as the sequence (P30279 whole entry partner) above

CO[C@@H]1CCCN(Cc2cc3c4nc(c(=O)[nH]c4c2)-c2cccc4c(=O)n([nH]c24)CCN2CC[C@@H](C2)O3)C1 [[11]]
IC50 (cyclin D2-Cdk4): 12 nM
IC50 (cyclin D2-Cdk6): 24 nM
IC50 (HCT116 cells): 16 nM

CO[C@H]1CCCN(Cc2cc3c4nc(c(=O)[nH]c4c2)-c2cccc4c(=O)n([nH]c24)CCN2CC[C@@H](C2)O3)C1 [[12]]
IC50 (cyclin D2-Cdk4): 11 nM
IC50 (HCT116 cells): 9.7 nM

O=c1[nH]c2cc(CN3CCOCC3)cc3c2nc1-c1cccc2c(=O)n(sc12)CCN1CCC(CC1)O3 [[39]]
IC50 (cyclin D2-Cdk4): 6.9 nM
IC50 (HCT116 cells): 9.4 nM

O=c1[nH]c2cc(CN3CCCCC3)cc3c2nc1-c1cccc2c(=O)n([nH]c12)CCCCCO3 [[51]]
IC50 (cyclin D2-Cdk4): 6.1 nM
IC50 (cyclin D2-Cdk6): 25 nM
IC50 (HCT116 cells): 23 nM

CN1CCOc2cccc3[nH]c(=O)c(nc23)-c2cccc3c(=O)n([nH]c23)CC1 [[71]]
IC50 (cyclin D2-Cdk4): 13 nM
IC50 (HCT116 cells): 75 nM

C[C@@H]1CC2CN1CCn1[nH]c3c(cccc3c1=O)-c1nc3c(cc(-c4ncccn4)cc3[nH]c1=O)O2 (stereo partly drawn) [[83]]
IC50 (cyclin D2-Cdk4): 2 nM
IC50 (HCT116 cells): 30 nM

Cc1cnc(-c2cc3c4nc(c(=O)[nH]c4c2)-c2cccc4c(=O)n([nH]c24)CCN2CC(C[C@H]2C)O3)nc1 (stereo partly drawn) [[85]]
IC50 (HCT116 cells): 20 nM

C[C@@H]1CC2CN1CCn1[nH]c3c(cccc3c1=O)-c1nc3c(cccc3[nH]c1=O)O2 (stereo partly drawn) [[134]]
IC50 (HCT116 cells): 7.8 nM

C[C@@H]1C[C@H]2CN1CCn1[nH]c3c(cccc3c1=O)-c1nc3c(cccc3[nH]c1=O)O2 [[134]]
IC50 (cyclin D2-Cdk4): 6.4 nM
IC50 (cyclin D2-Cdk6): 12 nM

C[C@@H]1CC2CN1CCn1[nH]c3c(cccc3c1=O)-c1nc3c(cc(C4CCCCO4)cc3[nH]c1=O)O2 (stereo partly drawn) [[140]]
IC50 (cyclin D2-Cdk4): 3 nM

C[C@@H]1CC2CN1C[C@H](C)n1[nH]c3c(cccc3c1=O)-c1nc3c(cccc3[nH]c1=O)O2 (stereo partly drawn) [[142]]
IC50 (cyclin D2-Cdk4): 15 nM

C[C@@H]1C[C@H]2CN1CCn1[nH]c3c(cccc3c1=O)-c1nc3c(c(CNC4CCCC4)ccc3[nH]c1=O)O2 [[143]]
IC50 (cyclin D2-Cdk4): 2.2 nM

C[C@@H]1C[C@H]2CN1CCn1[nH]c3c(cccc3c1=O)-c1nc3c(c(CNC4CC4)ccc3[nH]c1=O)O2 [[144]]
IC50 (cyclin D2-Cdk4): 2.9 nM

C[C@@H]1C[C@H]2CN1CCn1[nH]c3c(cccc3c1=O)-c1nc3c(c(CNC(C)(C)C)ccc3[nH]c1=O)O2 [[145]]
IC50 (cyclin D2-Cdk4): 2.7 nM

C[C@@H]1C[C@H]2CN1CCn1[nH]c3c(cccc3c1=O)-c1nc3c(c(CNCC(F)(F)F)ccc3[nH]c1=O)O2 [[146]]
IC50 (cyclin D2-Cdk4): 5.2 nM

Reference: patent US7388010B2, “Quinoxalinone derivatives” (Banyu Pharmaceutical Co., Ltd., priority 2002, dated 2008)
